{
  "source": "patent US9212204B2",
  "about": "“Treatment of rett syndrome using glycyl-L-2-methylprolyl-L-glutamic acid” (priority 2011, dated 2015)",
  "key": {"[1]": {"system": "neurons in the CA3 region of the hippocampus", "assay": "Neuron soma size in the hippocampus", "format": "in vivo, mouse", "experimental": "We also measure the effect of G-2-MePE treatment on neuron soma size in the hippocampus. Mice are treated with G-2-MePE as described above for locomotor activity."}, "MeCP2 deficient mice": {"system": "MeCP2 deficient mice", "assay": "Seizure activity, electroencephalographic recordings", "conditions": "mouse, in vivo", "description": "Because seizures are a prominent, hazardous and a difficult to treat aspect of Rett Syndrome, we determine the effects of G-2MePE on seizure activity in MeCP2 deficient animals. G-2-MePE can be effective in treating seizure activity in animals with neurodegenerative disease (U.S. Pat. No. 7,714,020). Therefore, we carry out experiments to determine whether G-2-MePE can also treat seizure activity in MeCP2 deficient mice. Electroencephalograpic recordings of wild-type mice and MeCP2 deficient mice treated with either saline or G-2-MePE are obtained using methods described in U.S. Pat. No. 7,714,020."}, "gastrointestinal cells": {"system": "gastrointestinal cells", "conditions": "cited from earlier work"}, "[2]": {"system": "hemizygous MeCP2(1lox) male mice", "format": "in vivo", "conditions": "for time to 50 percent death: 20 mg/kg/day i.p.", "description": "To determine whether G-2-MePE treatment can impact the development and progression of Rett Syndrome in a murine model of the disorder, we used hemizygous MeCP2(1lox) male mice. The MeCP2 knock-out (MeCP2-KO) mouse system is widely accepted in the art as closely mimicking the range and the severity of physiological and neurological abnormalities characteristic of the human disorder, Rett Syndrome."}, "central nervous system": {"system": "central nervous system", "conditions": "after oral administration; cited from earlier work"}, "[3]": {"system": "subjects with an Autism Spectrum Disorder", "assay": "Placebo-controlled crossover study in subjects with an Autism Spectrum Disorder", "format": "in vivo, human", "description": "To determine whether G-2-MePE can treat symptoms of ASD, we carry out a study in human beings with ASD. Twenty subjects with an Autism Spectrum Disorder are recruited. Subjects are male and aged between 16 and 65 years (Mean=18.1 SD=3.4). All subjects have an IQ >60 and strict DSM-IV-TR diagnosis of Autistic Disorder or Asperger Disorder, Subjects also meet criteria for an Autism Spectrum Disorder according the ADI-R and ADOS-G instruments, and fulfill the proposed DSM-V criteria for and Autism Spectrum Disorder. Subjects are instructed that concomitant medications are to be stable for at least six weeks prior to study. Subjects receiving medication to treat signs of inattention are tested in the morning and instructed to take their medication in the afternoon. Subjects better treated with atypical anti-psychotic medications indicated for autism are excluded. Subjects are screened for known genetic disorders including and those with Fragile X Syndrome or tuberous sclerosis excluded. Subjects with uncontrolled epilepsy are excluded.\nThe study is a double blind placebo-controlled crossover study with three phases. Subjects enter each phase of the crossover in a randomized order. In the test phases, subjects receive either placebo, 10 mg/kg T.I.D oral G-2-MePE for five days, or 30 mg/kg T.I.D. oral G-2-MePE. Each phase of the crossover is separated by a washout period of fourteen days.\nSubjects are tested at baseline using the following instruments: Wechsler IQ, Abberant Behavior Checklist Community Edition (ABC), Vinelands, Yale-Brown Obsessive Compulsive Scale (YBOCS) compulsion subscale, Social Responsiveness Scale (SRS), Clinical Global Impression of Severity (CGI-S) and their carers complete the Caregiver Strain Questionnaire (CSQ).\nSubjects are administered two tasks—the Reading the Mind in the Eyes Test—Revised (RMET) and an Eye Tracking (ET) task, as well as Clinical Global Impression of Improvement (CGI-1). Tasks commence two hours following administration of placebo or either dose of G-2-MePE. The RMET is a computer based task that assesses one's ability to read emotions from the eyes of subtle affective facial expressions and is a widely used test of emotion recognition in patients with autism (2001). Importantly, the RMET is capable of detecting improvement with even a single dose of a pharmacological agent (Guastella et al., 2010). Eye tracking issues are characteristic of patients with autism who spend less time looking at the eyes of photographs of human faces. Again, a single administration of a pharmacologic intervention can ameliorate eye tracking deficits in autism (Andari et al, 2010).\nAdverse events are also recorded using standard safety measures.\nStatistically, the effect of treatment with G-2-MePE is analysed by conducting a repeated analysis of covariance (ANCOVA) on the effect of treatment on change from baseline scores."}, "[4]": {"system": "ChAT-positive neurons in the striatum of 18-month old rats", "assay": "ChAT immunohistochemistry in striatum of aging rats", "format": "in vivo, rat", "conditions": "single s.c. dose 0.012-12 mg/kg, 3 days after treatment", "experimental": "In this experiment, we tested the effects of G-2-MePE on the number of ChAT-positive neurons in brains of 18-month old rats.\nEighteen-month old male rats received one of five treatments. A control group was treated with vehicle (saline alone (n=4) and four groups were treated with a single dose of G-2-MePE. Doses of 0.012 (n=4), 0.12 (n=5), 1.2 (ln=5) and 12 mg/kg (n=3), respectively, were given sub-cutaneously. Rats were sacrificed with an overdose of pentobarbital 3 days after drug treatment. Brains were perfused with normal saline and 4% paraformaldehyde and fixed in perfusion fixative overnight. Brains were stored in 25% sucrose in 0.1M PBS (pH7.4) until the tissue sank. Frozen coronal sections of striatum were cut with a microtome and stored in 0.1% sodium azide in 0.1M PBS at 4° C. Immunoreactivity for choline acetyltransferase (ChAT) was established by staining using a free floating section method. Briefly, antibodies were diluted in 1% goat serum. The sections were incubated in 0.2% triton in 0.1M PBS/Triton™ at 4° C. overnight before Immunohistochemical staining. The sections were pre-treated with 1% H2O2 in 50% methanol for 20 min. […]\nThe size of the striatal region used for the count was measured using an image analyser. […]\nData were analysed using a paired t-test and presented as mean+/−SEM."}, "[5]": {"system": "animals with hypoxic-ischemic injuries caused by middle cerebral artery occlusion", "conditions": "MCaO; cited from earlier work"}},
  "note": "Where two headings read alike, the source gives them in different places. Non-standard residues stand in square brackets, D forms with d. Residues, ends and D or L forms follow the SMILES beside them. αMeP = C[C@@]1(C(=O)O)CCCN1",
  "data": [
    {"smiles": "C[C@@]1(C(=O)N[C@@H](CCC(=O)O)C(=O)O)CCCN1C(=O)CN", "note": "[Example G-2-MePE, Glycyl-L-2-methylprolyl-L-glutamic acid] (H-Gly-[αMeP]-Glu-OH)", "values": [
      {"measurement": "average soma size", "setting": "[1]; KO animals", "value": "increases"},
      {"measurement": "soma size", "setting": "[1]; wild type animals", "value": "little or no effect"},
      {"measurement": "motor seizures", "setting": "MeCP2 deficient mice", "value": "effective in decreasing"},
      {"measurement": "non-convulsive seizures", "setting": "MeCP2 deficient mice", "value": "effective in decreasing"},
      {"measurement": "degradation by gastrointestinal cells", "setting": "gastrointestinal cells", "value": "not degraded"},
      {"measurement": "uptake by gastrointestinal cells", "setting": "gastrointestinal cells", "value": "taken up"},
      {"measurement": "time to 50 percent death", "setting": "[2]; data initially presented", "value": 16, "unit": "weeks"},
      {"measurement": "time to 50 percent death", "setting": "[2]; re-examination with control group re-run", "value": 16, "unit": "weeks"},
      {"measurement": "safety in mecp2 mice", "setting": "[2]; mouse, in vivo", "value": "No safety concerns"},
      {"measurement": "activity in the central nervous system", "setting": "central nervous system", "value": "active"},
      {"measurement": "percent correct responses on the RMET", "setting": "[3]; 30 mg/kg T.I.D. oral", "value": "increases"},
      {"measurement": "Serious Adverse Events", "setting": "[3]; 10 or 30 mg/kg T.I.D. oral", "value": "No Serious Adverse Events"},
      {"measurement": "adverse events", "setting": "[3]; 10 or 30 mg/kg T.I.D. oral, vs placebo", "value": "no more adverse events than were present during treatment with placebo"},
      {"measurement": "tolerability", "setting": "[3]; ASD population", "value": "well tolerated"},
      {"measurement": "performance of the RMET test", "setting": "[3]; overall treatment effect", "value": "significant overall improvement"},
      {"measurement": "time spent looking at the eye region in the ET test", "setting": "[3]; overall treatment effect", "value": "significant overall improvement"},
      {"measurement": "number of ChAT-immunopositive neurons", "setting": "[4]", "value": "increased"},
      {"measurement": "non-convulsive seizures (NCS)", "setting": "[5]", "value": "inhibit"}
    ]}
  ]
}
